From the NIST ThermoML archive (doi:10.1016/j.fluid.2017.03.010)
Numbers after ± are expanded uncertainties.

Conditions: Liquid

Row | SMILES | Normal boiling temperature (othmer still) [°C] | Normal boiling temperature (Othmer still) [°C]
1 | CCO [ethanol] | 78.30 ± 1.6 | 
2 | O [water] |  | 100.00 ± 1.6
